According to patent US10981894B2, “Melanocortin subtype-2 receptor (MC2R) antagonists and uses thereof” (Crinetics Pharmaceuticals, Inc., priority 2018, dated 2021):

Molecular target: hMC2 receptor (Homo sapiens, UniProt Q01718)
Experiment: hMC2 membrane binding assay ([125I]ACTH (1-39) Tyr23, SPA)
Design: scale not given here
Conditions: crude hMC2R membranes from CRE-bla-CHO-K1 cells expressing hMC2 receptor and hMRAP; [125I]ACTH (1-39) Tyr23 0.2 nM; 1.5 hours at room temperature; read-out: MC2R binding potency
Experimental: Crude membrane fractions are prepared from CRE-bla-CHO-K1 cells stably expressing hMC2 receptor and hMRAP accessory protein (Thermo Fisher). The cells are grown to 85-100% confluence on standard tissue culture dishes in GlutaMax DMEM growth media (Gibco) with following additives: 10% dialyzed FBS (Gemini), 0.1 mM NEAA (Gibco), 25 mM HEPES (Gibco), 5 μg/mL blasticidin (Goldbio), 100 μg/mL zeocin (Invitrogen), 600 μg/mL hygromycin (Goldbio). To prepare membranes, cells are scraped and collected in 1× Dulbecco's phosphate buffered saline (Corning) and then pelleted at 1000 RPM's. The cell pellet is reconstituted in membrane preparation buffer (20 mM HEPES, 6 mM MgCl2 and 1 mM EGTA, protease inhibitor tablets (Pierce) adjusted to pH 7.4), homogenized using a dounce homogenizer, and the resulting membrane fraction is pelleted by centrifugation at 12,000 RPM's. The membrane pellet is resuspended in membrane preparation buffer, snap freezed and stored at −80° C. for later use.
Binding Assay for hMC2 Antagonists Protocol:
The hMC2 membrane binding assay utilizes the following components: radiolabel [^125I]ACTH (1-39) Tyr23 (PerkinElmer), wheatgerm agglutinin coated PVT SPA beads (PerkinElmer), crude hMC2R membranes, and compounds. Briefly hMC2R membranes are incubated with SPA beads in binding assay buffer (50 mM HEPES, 5 mM MgCl2, 1 mM CaCl2, 0.2% BSA, protease inhibitor tablets (Pierce) adjusted to pH7.4) prior to assay initiation. A dose response of compound (the final concentration of compound are typically 0-10,000 nM), SPA membranes, and [^125I]ACTH (1-39) Tyr23 at a final concentration of 0.2 nM is plated in a 96-well assay plate and allowed to incubate 1.5 hours at room temperature. Assay plates are read using a Top Count NXT and Ki values for compounds are determined using a GraphPad Prism 6 non-linear regression analysis.

Sequence of hMC2 receptor (Q01718 whole entry): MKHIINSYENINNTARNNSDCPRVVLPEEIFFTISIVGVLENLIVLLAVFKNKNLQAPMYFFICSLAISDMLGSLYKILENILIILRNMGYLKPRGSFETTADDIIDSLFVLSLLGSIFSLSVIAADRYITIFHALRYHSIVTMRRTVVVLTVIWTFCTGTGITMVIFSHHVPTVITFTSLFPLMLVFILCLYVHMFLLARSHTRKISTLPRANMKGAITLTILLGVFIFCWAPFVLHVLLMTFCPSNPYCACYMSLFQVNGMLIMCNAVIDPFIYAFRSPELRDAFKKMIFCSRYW
Sequence of hMC2 receptor (Q8TCY5 whole entry partner): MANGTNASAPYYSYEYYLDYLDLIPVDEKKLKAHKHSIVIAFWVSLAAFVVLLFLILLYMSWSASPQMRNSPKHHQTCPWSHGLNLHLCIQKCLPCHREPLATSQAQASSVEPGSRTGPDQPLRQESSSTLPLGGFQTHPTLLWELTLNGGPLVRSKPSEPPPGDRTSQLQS

CC[C@@H]1CN(C(=O)c2ccc(C(F)(F)F)cc2Cl)CCN1c1ccc(-c2ccccc2C(=O)NC)cc1C(=O)NCCN [Compound 1-20, (R)-N3′-(2-aminoethyl)-4′-(4-(2-chloro-4-(trifluoromethyl)benzoyl)-2-ethylpiperazin-1-yl)-N2-methyl-[1,1′-biphenyl]-2,3′-dicarboxamide]
Ki: 10 to 100 nM

CCOc1ccccc1-c1ccc(N2CCN(C(=O)c3ccc(C(F)(F)F)cc3Cl)C[C@H]2CC)c(C(=O)NCCCN)c1 [Compound 1-23, N-(3-aminopropyl)-4-[(2R)-4-[2-chloro-4-(trifluoromethyl)benzoyl]-2-ethylpiperazin-1-yl]-2′-ethoxy-[1,1′-biphenyl]-3-carboxamide]
Ki: 10 to 100 nM

CCOc1ccccc1-c1ccc(N2CCN(C(=O)c3ccc(Cl)cc3C(F)(F)F)C[C@H]2CC)c(C(=O)NCCN)c1 [Compound 1-25, N-(2-aminoethyl)-4-[(2R)-4-[4-chloro-2-(trifluoromethyl)benzoyl]-2-ethylpiperazin-1-yl]-2′-ethoxy-[1,1′-biphenyl]-3-carboxamide]
Ki: < 10 nM

CCOc1ccccc1-c1ccc(N2CCN(C(=O)c3ccccc3-c3ccc(CN)c(F)c3)C[C@H]2CC)c(C(=O)NCCN)c1 [Compound 1-26, N-(2-aminoethyl)-4-[(2R)-4-[4′-(aminomethyl)-3′-fluoro-[1,1′-biphenyl]-2-carbonyl]-2-ethylpiperazin-1-yl]-2′-ethoxy-[1,1′-biphenyl]-3-carboxamide]
Ki: < 10 nM

CCOc1ccccc1-c1ccc(N2CCN(C(=O)c3c(F)cc(C)cc3-c3ccc(CN)cc3)C[C@H]2CC)c(C(=O)NCCN)c1 [Compound 1-27, N-(2-aminoethyl)-4-[(2R)-4-[4′-(aminomethyl)-3-fluoro-5-methyl-[1,1′-biphenyl]-2-carbonyl]-2-ethylpiperazin-1-yl]-2′-ethoxy-[1,1′-biphenyl]-3-carboxamide]
Ki: < 10 nM

CCOc1cccnc1-c1ccc(N2CCN(C(=O)c3ccc(C(F)(F)F)cc3Cl)C[C@H]2CC)c(C(=O)NCCN)c1 [Compound 1-32, N-(2-aminoethyl)-2-[(2R)-4-[2-chloro-4-(trifluoromethyl)benzoyl]-2-ethylpiperazin-1-yl]-5-(3-ethoxypyridin-2-yl)benzamide]
Ki: 10 to 100 nM

CCOc1cnccc1-c1ccc(N2CCN(C(=O)c3ccc(C(F)(F)F)cc3Cl)C[C@H]2CC)c(C(=O)NCCN)c1 [Compound 1-33, N-(2-aminoethyl)-2-[(2R)-4-[2-chloro-4-(trifluoromethyl)benzoyl]-2-ethylpiperazin-1-yl]-5-(3-ethoxypyridin-4-yl)benzamide]
Ki: 10 to 100 nM

CCOc1ncccc1-c1ccc(N2CCN(C(=O)c3ccc(C(F)(F)F)cc3Cl)C[C@H]2CC)c(C(=O)NCCN)c1 [Compound 1-34, N-(2-aminoethyl)-2-[(2R)-4-[2-chloro-4-(trifluoromethyl)benzoyl]-2-ethylpiperazin-1-yl]-5-(2-ethoxypyridin-3-yl)benzamide]
Ki: < 10 nM

CCOc1ccncc1-c1ccc(N2CCN(C(=O)c3ccc(C(F)(F)F)cc3Cl)C[C@H]2CC)c(C(=O)NCCN)c1 [Compound 1-35, N-(2-aminoethyl)-2-[(2R)-4-[2-chloro-4-(trifluoromethyl)benzoyl]-2-ethylpiperazin-1-yl]-5-(4-ethoxypyridin-3-yl)benzamide]
Ki: < 10 nM

CCOc1ncccc1-c1ccc(N2CCN(C(=O)c3ccc(F)cc3-c3ccc(CN)cc3)C[C@H]2CC)c(C(=O)NCCN)c1 [Compound 1-36, N-(2-aminoethyl)-2-[(2R)-4-[4′-(aminomethyl)-5-fluoro-[1,1′-biphenyl]-2-carbonyl]-2-ethylpiperazin-1-yl]-5-(2-ethoxypyridin-3-yl)benzamide]
Ki: < 10 nM

CCOc1ncccc1-c1ccc(N2CCN(C(=O)c3ccc(Cl)cc3C(F)(F)F)C[C@H]2CC)c(C(=O)NCCN)c1 [Compound 1-37, N-(2-aminoethyl)-2-[(2R)-4-[4-chloro-2-(trifluoromethyl)benzoyl]-2-ethylpiperazin-1-yl]-5-(2-ethoxypyridin-3-yl)benzamide]
Ki: < 10 nM

CCOc1ncccc1-c1ccc(N2CCN(C(=O)c3ccc(F)cc3Cl)C[C@H]2CC)c(C(=O)NCCN)c1 [Compound 1-38, N-(2-aminoethyl)-2-[(2R)-4-(2-chloro-4-fluorobenzoyl)-2-ethylpiperazin-1-yl]-5-(2-ethoxypyridin-3-yl)benzamide]
Ki: < 10 nM

CCOc1ncccc1-c1ccc(N2CCN(C(=O)c3ccc(Cl)cc3N3CC[C@H](CN)C3)C[C@H]2CC)c(C(=O)NCCN)c1 [Compound 1-40, N-(2-aminoethyl)-2-[(2R)-4-{2-[(3R)-3-(aminomethyl)pyrrolidin-1-yl]-4-chlorobenzoyl}-2-ethylpiperazin-1-yl]-5-(2-ethoxypyridin-3-yl)benzamide]
Ki: < 10 nM

CCOc1ncccc1-c1ccc(N2CCN(C(=O)c3ccc(Cl)cc3N3CC[C@@H](CN)C3)C[C@H]2CC)c(C(=O)NCCN)c1 [Compound 1-41, N-(2-aminoethyl)-2-[(2R)-4-{2-[(3S)-3-(aminomethyl)pyrrolidin-1-yl]-4-chlorobenzoyl}-2-ethylpiperazin-1-yl]-5-(2-ethoxypyridin-3-yl)benzamide]
Ki: < 10 nM

CCOc1ncccc1-c1ccc(N2CCN(C(=O)c3ccc(Cl)cc3Cl)C[C@H]2CC)c(C(=O)NCCN)c1 [Compound 1-42, N-(2-aminoethyl)-2-[(2R)-4-(2,4-dichlorobenzoyl)-2-ethylpiperazin-1-yl]-5-(2-ethoxypyridin-3-yl)benzamide]
Ki: < 10 nM

CCOc1ncccc1-c1ccc(N2CCN(C(=O)c3ccc(C)cc3Cl)C[C@H]2CC)c(C(=O)NCCN)c1 [Compound 1-43, N-(2-aminoethyl)-2-[(2R)-4-(2-chloro-4-methylbenzoyl)-2-ethylpiperazin-1-yl]-5-(2-ethoxypyridin-3-yl)benzamide]
Ki: < 10 nM

CCOc1ncccc1-c1ccc(N2CCN(C(=O)c3c(F)cc(C)cc3-c3ccc(CN)cc3)C[C@H]2CC)c(C(=O)NCCN)c1 [Compound 1-44, N-(2-aminoethyl)-2-[(2R)-4-[4′-(aminomethyl)-3-fluoro-5-methyl-[1,1′-biphenyl]-2-carbonyl]-2-ethylpiperazin-1-yl]-5-(2-ethoxypyridin-3-yl)benzamide]
Ki: < 10 nM

CCOc1ncccc1-c1ccc(N2CCN(C(=O)c3ccc(Cl)cc3C(F)(F)F)C[C@H]2CC)c(C(=O)N[C@@H]2CCNC2)c1 [Compound 1-45, 2-[(2R)-4-[4-chloro-2-(trifluoromethyl)benzoyl]-2-ethylpiperazin-1-yl]-5-(2-ethoxypyridin-3-yl)-N-[(3R)-pyrrolidin-3-yl]benzamide]
Ki: < 10 nM

CCOc1ncccc1-c1ccc(N2CCN(C(=O)c3ccc(Cl)cc3C(F)(F)F)C[C@H]2CC)c(C(=O)NCCNC)c1 [Compound 1-46, 2-[(2R)-4-[4-chloro-2-(trifluoromethyl)benzoyl]-2-ethylpiperazin-1-yl]-5-(2-ethoxypyridin-3-yl)-N-[2-(methylamino)ethyl]benzamide]
Ki: < 10 nM

CCOc1ncccc1-c1ccc(N2CCN(C(=O)c3ccc(Cl)cc3C(F)(F)F)C[C@H]2CC)c(C(=O)NCCN(C)C)c1 [Compound 1-47, 2-[(2R)-4-[4-chloro-2-(trifluoromethyl)benzoyl]-2-ethylpiperazin-1-yl]-N-[2-(dimethylamino)ethyl]-5-(2-ethoxypyridin-3-yl)benzamide]
Ki: < 10 nM

CCOc1ncccc1-c1ccc(N2CCN(C(=O)c3ccc(Cl)cc3C(F)(F)F)C[C@H]2CC)c(C(=O)N[C@@H]2CCN(C)C2)c1 [Compound 1-48, 2-[(2R)-4-[4-chloro-2-(trifluoromethyl)benzoyl]-2-ethylpiperazin-1-yl]-5-(2-ethoxypyridin-3-yl)-N-[(3R)-1-methylpyrrolidin-3-yl]benzamide]
Ki: < 10 nM

CCOc1ncccc1-c1ccc(N2CCN(C(=O)c3ccc(Cl)cc3C(F)(F)F)C[C@H]2CC)c(C(=O)NCCN2CCCC2)c1 [Compound 1-49, 2-[(2R)-4-[4-chloro-2-(trifluoromethyl)benzoyl]-2-ethylpiperazin-1-yl]-5-(2-ethoxypyridin-3-yl)-N-[2-(pyrrolidin-1-yl)ethyl]benzamide]
Ki: < 10 nM

CCOc1ncccc1-c1ccc(N2CCN(C(=O)c3ccc(C(F)(F)F)cc3N3CCC(CN)C3)C[C@H]2CC)c(C(=O)NCCN)c1 (stereo partly drawn) [Compound 1-50, N-(2-aminoethyl)-2-[(2R)-4-{2-[3-(aminomethyl)pyrrolidin-1-yl]-4-(trifluoromethyl)benzoyl}-2-ethylpiperazin-1-yl]-5-(2-ethoxypyridin-3-yl)benzamide]
Ki: < 10 nM

CCOc1ncccc1-c1ccc(N2CCN(C(=O)c3ccc(F)cc3N3CCC(CN)C3)C[C@H]2CC)c(C(=O)NCCN)c1 (stereo partly drawn) [Compound 1-51, N-(2-aminoethyl)-2-[(2R)-4-{2-[3-(aminomethyl)pyrrolidin-1-yl]-4-fluorobenzoyl}-2-ethylpiperazin-1-yl]-5-(2-ethoxypyridin-3-yl)benzamide]
Ki: < 10 nM
